The NIST ThermoML archive (doi:10.1016/j.jct.2012.02.038)
“And” between values parts separate entries of the source, which are not always exact repeats. Equal entries are not always repeated.

Assays:
[1] = refractive index (other wavelength) (dimensionless); conditions: 101.3 kPa, Liquid, Wavelength=632.8 nm, Minimum deviation technique
[2] = refractive index (other wavelength) (dimensionless); xn = mol fraction of the nth substance listed; conditions: 101.3 kPa, Liquid, Wavelength=632.8 nm, Minimum deviation technique

COC(=O)CCCCC(=O)OC [dimethyl 1,6-hexanedioate]
[1]
Conditions | refractive index
293.15 K | 1.4275
294.14 K | 1.4271
295.19 K | 1.4267
296.25 K | 1.4263
298.35 K | 1.4254
299.4 K | 1.425 and 1.4249
300.18 K | 1.4246
301 K | 1.4243
301.84 K | 1.4239
302.58 K | 1.4236
303.19 K | 1.4234
303.88 K | 1.4231

COC(=O)CCCCC(=O)OC [dimethyl 1,6-hexanedioate] + CCCCCCCC
[2], 299.79 K
Conditions | refractive index
x1 = 0.099 | 1.3955
x1 = 0.2 | 1.3985
x1 = 0.302 | 1.4014
x1 = 0.4 | 1.4047
x1 = 0.5 | 1.408
x1 = 0.602 | 1.4113
x1 = 0.701 | 1.4146
x1 = 0.8 | 1.418
x1 = 0.899 | 1.4214

COC(=O)CCCCC(=O)OC [dimethyl 1,6-hexanedioate] + CCCCCCCCC
[2], 305.07 K
Conditions | refractive index
x1 = 0.101 | 1.4
x1 = 0.2 | 1.4017
x1 = 0.295 | 1.404
x1 = 0.39 | 1.406
x1 = 0.492 | 1.4085
x1 = 0.594 | 1.411
x1 = 0.713 | 1.4143
x1 = 0.79 | 1.4163
x1 = 0.902 | 1.4197

CCCCCCCCC [nonane]
[1]
Conditions | refractive index
299.25 K | 1.4015
300.07 K | 1.4011
300.85 K | 1.4007
301.85 K | 1.4003
302.57 K | 1.3999
303.3 K | 1.3995
303.83 K | 1.3993

CCCCCCCC [octane]
[1]
Conditions | refractive index
293.23 K | 1.3964
294.23 K | 1.3959
295.29 K | 1.3954
296.27 K | 1.3949
297.41 K | 1.3944
298.48 K | 1.3939
299.5 K | 1.3934
